Data published in article PMC13147323, “EGFR-Targeted and MMP-Activated Membranolytic Peptides Kill Cancer Cells Specifically In Vitro and Reduce Tumor Growth In Vivo” (Molecular Pharmaceutics, 2026).
Residues, ends and D or L forms follow the SMILES beside them.

Tests used:
Format in all cases: cell-based, human
Settings in all cases: 24 h
HB2 cells = test system: HB2 cells
Procedure: (§1) MDA-MB-468, MDA-MB-231, BT-474, AU-565, HB2, and MCF-10A cells were procured from American Type Culture Collection (ATCC) and validated for lack of mycoplasma contamination (MycoAlert; Lonza, Basel, Switzerland) and identity (short tandem repeat profiling; Source Bioscience, Nottingham, UK). Cells (except MCF-10A) were cultured in Dulbecco’s modified Eagle medium (DMEM) supplemented with 10% (v/v) fetal calf serum (FCS) and 100 units/mL penicillin–streptomycin (Thermo Scientific; Waltham, MA, USA). MCF-10A was cultured in DMEM supplemented with 5% horse serum, 0.1 μg/mL cholera toxin, 0.5 μg/mL hydrocortisone, 0.02 μg/mL epidermal growth factor, and 100 units/mL penicillin–streptomycin (Thermo Scientific, Waltham, MA, USA). Cells were grown at 37 °C in a humidified incubator with 5% CO2. Cells were maintained and experiments were performed under conditions ensuring cell densities that supported exponential growth.
(§2) Cells were seeded in 96-well plates at 1 × 10^4 cells/well in complete growth media and incubated for 18 h. Cells were then treated with peptides (0–250 μM) for up to 24 h. Cells were then incubated with 0.5 mg/mL MTT dissolved in PBS for 3 h. Formazan crystals were dissolved using […] of isopropanol and absorbance was measured at 570 nm on a microplate spectrophotometer (Biotech Instruments, USA). For spheroids assays, MDA-MB-468 or HB2 cells (1000 cells/well) were seeded in 250 μL of DMEM supplemented with 10% FCS and 2.5% Matrigel (Corning, New York, USA) in low-adherent, round-bottom 96-well plates (Corning, New York, USA). The plates were centrifuged at 360g for 10 min and subsequently incubated for 48 h to allow spheroid formation. MDA-MB-468 or HB2 spheroids were then treated with peptides at the IC50 doses determined for MDA-MB-468 cells for 24 h. Cellular viability within spheroids was assessed by staining with Hoechst 33342 (5 μg/mL) for 30 min, followed by propidium iodide (PI) (1.5 μg/mL) for 10 min. Red fluorescence indicated nonviable cells stained with PI, whereas blue fluorescence represented both viable and nonviable cells stained with Hoechst 33342. The survival of spheroids was determined by calculating ratios of blue/red fluorescence using ImageJ software.
(§3) A panel of human breast epithelial cell lines was established, including two lines from a nontransformed origin (MCF-10A; HB2) and four cancer lines (BT-474; AU-565; MDA-MB-231; MDA-MB-468). Cells were treated with different doses of MP1 or the modified peptides. Survival was assessed relative to untreated using MTT assays (Figures and S2) and IC50 doses were determined for each peptide in each cell line.

MDA-MB-468 cells = test system: MDA-MB-468 cells
Procedure: as §1, §2, §3

MCF-10A cells = test system: MCF-10A cells
Procedure: as §1, §2, §3

AU-565 cells = test system: AU-565 cells
Procedure: as §1, §2, §3

MDA-MB-231 cells = test system: MDA-MB-231 cells
Procedure: as §1, §2, §3

BT-474 cells = test system: BT-474 cells
Procedure: as §1, §2, §3

Compound: CC[C@H](C)[C@H](N)C(=O)N[C@@H](CCCCN)C(=O)N[C@@H](Cc1c[nH]c2ccccc12)C(=O)N[C@@H](CCCCN)C(=O)N[C@@H](CCCCN)C(=O)N[C@@H](CC(C)C)C(=O)N[C@@H](CC(C)C)C(=O)N[C@@H](CC(=O)O)C(=O)N[C@@H](C)C(=O)N[C@@H](C)C(=O)N[C@@H](CCCCN)C(=O)N[C@@H](CCC(N)=O)C(=O)N[C@H](C(=O)N[C@@H](CC(C)C)C(=O)NCC(=O)NCC(=O)N[C@@H](Cc1ccc(O)cc1)C(=O)N[C@@H](Cc1c[nH]cn1)C(=O)N[C@@H](Cc1c[nH]c2ccccc12)C(=O)N[C@@H](Cc1ccc(O)cc1)C(=O)NCC(=O)N[C@@H](Cc1ccc(O)cc1)C(=O)N[C@H](C(=O)N1CCC[C@H]1C(=O)N[C@@H](CCC(=O)O)C(=O)N[C@@H](CC(N)=O)C(=O)N[C@H](C(=O)N[C@H](C(=O)O)[C@@H](C)CC)C(C)C)[C@@H](C)O)[C@@H](C)CC [EGFR-D2K] (H-IKWKKLLDAAKQILGGYHWYGYTPENVI-OH)
- IC50 (HB2 cells): 50.5 µM
- IC50 (MDA-MB-468 cells): 27.2 µM

Compound: CC[C@H](C)[C@H](N)C(=O)N[C@@H](CC(=O)O)C(=O)N[C@@H](Cc1c[nH]c2ccccc12)C(=O)N[C@@H](CCCCN)C(=O)N[C@@H](CCCCN)C(=O)N[C@@H](CC(C)C)C(=O)N[C@@H](CC(C)C)C(=O)N[C@@H](CC(=O)O)C(=O)N[C@@H](C)C(=O)N[C@@H](C)C(=O)N[C@@H](CCCCN)C(=O)N[C@@H](CCC(N)=O)C(=O)N[C@H](C(=O)N[C@@H](CC(C)C)C(=O)NCC(=O)NCC(=O)N[C@@H](Cc1ccc(O)cc1)C(=O)N[C@@H](Cc1c[nH]cn1)C(=O)N[C@@H](Cc1c[nH]c2ccccc12)C(=O)N[C@@H](Cc1ccc(O)cc1)C(=O)NCC(=O)N[C@@H](Cc1ccc(O)cc1)C(=O)N[C@H](C(=O)N1CCC[C@H]1C(=O)N[C@@H](CCC(=O)O)C(=O)N[C@@H](CC(N)=O)C(=O)N[C@H](C(=O)N[C@H](C(=O)O)[C@@H](C)CC)C(C)C)[C@@H](C)O)[C@@H](C)CC [EGFR-MP1] (H-IDWKKLLDAAKQILGGYHWYGYTPENVI-OH)
- IC50 (MCF-10A cells): 93.4 µM
- IC50 (AU-565 cells): 91.4 µM
- IC50 (MDA-MB-231 cells): 39.3 µM
- IC50 (BT-474 cells): 98.3 µM
- IC50 (HB2 cells): 71.4 µM
- IC50 (MDA-MB-468 cells): 39.6 µM
